Assay results from patent US8586568B2, “Methods and products for treatment of diseases” (Ampio Pharmaceuticals, Inc., priority 2005, dated 2013).
Read-outs that look alike come from different tables or passages of the source.

Experiments:
[1] = system: Human umbilical vein endothelial cells 7016 (HUVEC); assay: Invasion chamber: fetal calf serum induced endothelial cell invasion through matrigel treated inserts (trilostane III); conditions: for Mean FU: 5% FCS in bottom chamber, 24 hours, background subtracted, n=3; for effect on endothelial cell invasion: high dose (50 μM), 5% FCS induced invasion
Description: 1. Trypsinized HUVEC cells from flasks grown in Cambrex EGM-2 media to 70-80% confluence were washed two times with 37° C. EGM-2 with 0.1% FCS.
2. Cell suspensions containing 30,000 cells and compounds in EGM-2 0.1% FCS were added to the upper chamber of inserts.
3. EGM-2 containing 5% FCS was added to the bottom chamber and then incubated for 24 hours at 37° C. and 5% CO2.
4. Non-invading cells were removed from the upper chamber with cotton swab and the inserts were washed two times with 37° C. HBSS.
5. Inserts were then placed in wells containing 10 μM Calcein AM in HBSS.
6. Following four hours at 37° C. and 5% CO2, fluorescence was measured at 485 nm excitation and 595 nm emission.
Results are presented as mean fluorescent units (FU) in triplicate (n=3) with background fluorescence subtracted. […] To determine background invasion, nil inserts were included in triplicate that had EGM-2 with 0.1% FCS added to the bottom chamber.

HUVEC cells [2] = assay: Trilostane III tube formation assay in extracellular matrix gel; format: cell-based, Human; conditions: 50 μM, 18 hours
Description: 1. […] EGM-2 with 0.1% FCS.
2. Cell suspensions containing 10,000 cells and compounds in both EGM-2 0.1% and 5% FCS were added per well then incubated for 18 hours at 37° C. and 5% CO2.
3. Following incubation, tube formations were photographed under microscope.
Passage 3 HUVEC 8750 cells were used for this experiment at 98% viability by trypan blue exclusion at time of seeding.

HUVEC cells [3] = assay: Danazol BioCoat Matrigel Invasion Chamber; format: cell-based, Human; conditions: 5% FCS in bottom chamber; 24 hours; concentration not stated with the value
Description: BioCoat Matrigel Invasion Chambers were purchased from BD Biosciences (San Jose, Calif.). Inserts were rehydrated at 37° C. with 500 μl HBSS for 2 hours prior to use in humidified incubator. Trypsinized HUVEC cells were washed twice with warm EGM-2 containing 0.1% FCS and added to the upper chamber of the invasion insert at 100,000 cells in a total volume of 250 μl. Danazol and control compounds were added to the upper reservoir at final concentrations of 10 μM and 100 μM. 750 μl EGM-2 supplemented with 5% FCS was added to the bottom chamber to initiate invasion and the plates were incubated for 24 hours. Non-invasive cells were removed from the upper chamber with moistened cotton swabs and then the inserts were washed twice with HBSS. The inserts were then submerged in 10 μM calcein AM prepared in HBSS and incubated for 4 hours. Fluorescence was determined in a microplate reader at 485 nm excitation and 595 nm emission.
All data is presented as representative experiment done in triplicate. Differences between subsets were analyzed using student t-test in Microsoft Excel. P<0.05 was considered statistically significant.

HUVEC cells [4] = assay: Trilostane III effect on HUVEC cell proliferation (Celltiter 96 Aqueous One); format: cell-based, Human; conditions: for mean OD: 5% FCS, blank subtracted; for OD 1: replicate 1; for OD 2: replicate 2; for OD 3: replicate 3; for inhibition at 100 µM: Homo sapiens, HUVEC, read-out: inhibition of cultures (cell proliferation)
Description: 2. Medium was aspirated and the cells were then washed two times with 37° C. HBSS.
4. Cells were again washed to times with warm HBSS and then Celltiter reagent in EGM-2 with 0.1% FCS was added.
5. After 4 hours in culture the OD of each well was determine at 470 nm.
6. Repeat steps 4 and 5 for each time point.
Results are presented as mean OD of samples performed in triplicate (n=3) with mean blank OD subtracted. HUVEC 8750 cells were used for this experiment with 98% viability by trypan blue exclusion at time of seeding. […] The raw data are shown in Table 2 below and depicted graphically in FIG. 2.

[5] = without added 5% FCS (nil wells, 0.1% FCS)

Compound: 2α-cyano-4α,5α-epoxyandrostan-17β-ol-3-one [trilostane]
- Mean FU ([1]; 25 μM): 11212.3 FU
- Mean FU ([1]; 50 μM): 9101.33 FU

Compound: O=c1cc(N2CCNCC2)oc2c(-c3ccccc3)cccc12 [LY303511]
- Mean FU ([1]; 50 μM): 12795.3 FU
- effect on endothelial cell invasion [1]: had no effect on invasion
- tube formation (HUVEC cells [2]; [5]): comparable tube formations to untreated cells

Compound: O=c1cc(N2CCOCC2)oc2c(-c3ccccc3)cccc12 [LY294002]
- Mean FU ([1]; 50 μM): 9454.33 FU
- fluorescence of invaded cells (HUVEC cells [3]): 5814±153 FU

Compound: C[C@]12CCC3C(CC[C@@]45O[C@@H]4C4ON=CC4C[C@]35C)C1CC[C@@H]2O (stereo partly drawn) [trilostane III]
- effect on endothelial cell invasion [1]: dropped the levels back to background
- mean OD (HUVEC cells [4]; 0.1 uM, 24 hour): 0.3873
- OD 1 (HUVEC cells [4]; 0.1 uM, 24 hour): 0.362
- OD 2 (HUVEC cells [4]; 0.1 uM, 24 hour): 0.368
- OD 3 (HUVEC cells [4]; 0.1 uM, 24 hour): 0.432
- mean OD (HUVEC cells [4]; 0.1 uM, 48 hour): 0.656
- OD 1 (HUVEC cells [4]; 0.1 uM, 48 hour): 0.575
- OD 2 (HUVEC cells [4]; 0.1 uM, 48 hour): 0.698
- OD 3 (HUVEC cells [4]; 0.1 uM, 48 hour): 0.695
- mean OD (HUVEC cells [4]; 0.1 uM, 72 hour): 0.9187
- OD 1 (HUVEC cells [4]; 0.1 uM, 72 hour): 0.733
- OD 2 (HUVEC cells [4]; 0.1 uM, 72 hour): 0.962
- OD 3 (HUVEC cells [4]; 0.1 uM, 72 hour): 1.061
- mean OD (HUVEC cells [4]; 1 uM, 24 hour): 0.311
- OD 1 (HUVEC cells [4]; 1 uM, 24 hour): 0.284
- OD 2 (HUVEC cells [4]; 1 uM, 24 hour): 0.328
- OD 3 (HUVEC cells [4]; 1 uM, 24 hour): 0.321
- mean OD (HUVEC cells [4]; 1 uM, 48 hour): 0.4347
- OD 1 (HUVEC cells [4]; 1 uM, 48 hour): 0.358
- OD 2 (HUVEC cells [4]; 1 uM, 48 hour): 0.489
- OD 3 (HUVEC cells [4]; 1 uM, 48 hour): 0.457
- mean OD (HUVEC cells [4]; 1 uM, 72 hour): 0.3877
- OD 1 (HUVEC cells [4]; 1 uM, 72 hour): 0.387
- OD 2 (HUVEC cells [4]; 1 uM, 72 hour): 0.437
- OD 3 (HUVEC cells [4]; 1 uM, 72 hour): 0.339
- mean OD (HUVEC cells [4]; 10 uM, 24 hour): 0.2467
- OD 1 (HUVEC cells [4]; 10 uM, 24 hour): 0.18
- OD 2 (HUVEC cells [4]; 10 uM, 24 hour): 0.267
- OD 3 (HUVEC cells [4]; 10 uM, 24 hour): 0.293
- mean OD (HUVEC cells [4]; 10 uM, 48 hour): 0.203
- OD 1 (HUVEC cells [4]; 10 uM, 48 hour): 0.159
- OD 2 (HUVEC cells [4]; 10 uM, 48 hour): 0.208
- OD 3 (HUVEC cells [4]; 10 uM, 48 hour): 0.242
- mean OD (HUVEC cells [4]; 10 uM, 72 hour): 0.072
- OD 1 (HUVEC cells [4]; 10 uM, 72 hour): 0.031
- OD 2 (HUVEC cells [4]; 10 uM, 72 hour): 0.095
- OD 3 (HUVEC cells [4]; 10 uM, 72 hour): 0.09
- mean OD (HUVEC cells [4]; 100 uM, 24 hour): 0.2787
- OD 1 (HUVEC cells [4]; 100 uM, 24 hour): 0.235
- OD 2 (HUVEC cells [4]; 100 uM, 24 hour): 0.334
- OD 3 (HUVEC cells [4]; 100 uM, 24 hour): 0.267
- mean OD (HUVEC cells [4]; 100 uM, 48 hour): 0.2147
- OD 1 (HUVEC cells [4]; 100 uM, 48 hour): 0.17
- OD 2 (HUVEC cells [4]; 100 uM, 48 hour): 0.23
- OD 3 (HUVEC cells [4]; 100 uM, 48 hour): 0.244
- mean OD (HUVEC cells [4]; 100 uM, 72 hour): 0.108
- OD 1 (HUVEC cells [4]; 100 uM, 72 hour): 0.092
- OD 2 (HUVEC cells [4]; 100 uM, 72 hour): 0.119
- OD 3 (HUVEC cells [4]; 100 uM, 72 hour): 0.113
- lowest concentration with statistically relevant decrease in cell proliferation (HUVEC cells [4]; 24 hours): 1 µM
- inhibition at 100 µM (HUVEC cells [4]; 24 hours): 33%
- inhibition at 100 µM (HUVEC cells [4]; 48 hours): 67%
- inhibition at 100 µM (HUVEC cells [4]; 72 hours): 90%
- cell viability under inverted microscope (HUVEC cells [4]; all wells, even highest doses after 72 hours in culture): Viable cells were visible in all wells
- tube formation (HUVEC cells [2]; in the presence of 5% fetal calf serum): greatly reduced tube formation
- tube formation (HUVEC cells [2]; [5]): decrease in branching, vacuole formation, and increase in satellite cells
